We go through 74 compounds from ChEMBL document CHEMBL1250533, “QSAR-based solubility model for drug-like compounds” (Bioorg Med Chem, 2010).

≈ marks a conversion by molar mass, not a printed value.

The nature of the series: Intrinsic solubility of the compound in water.

One may read the solubility as the dissolved amount per volume that the medium holds. The low end stands for a poorly soluble substance, the high end for a readily soluble substance.

Compound `Oc1ccc(I)cc1` had a solubility (water) of 4250 µg/mL (≈ 19300 µM). Same read-out and setting: for `Nc1ccc(/N=N/c2ccccc2)c(N)n1` [PHENAZOPYRIDINE] the value was 13.7 µg/mL (≈ 64.2 µM); for `C=CCN1CC[C@]23c4c5ccc(O)c4O[C@H]2C(=O)CC[C@@]3(O)[C@H]1C5` [NALOXONE], 414 µg/mL (≈ 1260 µM); for `O=C(O)c1cn(-c2ccc(F)cc2)c2cc(N3CCNCC3)c(F)cc2c1=O` [SARAFLOXACIN], 280 µg/mL (≈ 727 µM).

`Clc1ccc(COC(Cn2ccnc2)c2ccc(Cl)cc2Cl)c(Cl)c1` (centres undefined) [MICONAZOLE] registered a solubility (water) of 3.5 µg/mL (≈ 8.41 µM).

With `O=c1[nH]cc(F)c(=O)[nH]1` [FLUOROURACIL], the solubility entry (buffer) is recorded as “Soluble”. Consider `CC(C(=O)O)c1ccc(-c2ccccc2)c(F)c1` (centres undefined) [FLURBIPROFEN], for which the solubility (water) was 17.2 µg/mL (≈ 70.4 µM).

The compound `C[C@@H]1CN(c2c(F)c(N)c3c(=O)c(C(=O)O)cn(C4CC4)c3c2F)C[C@H](C)N1` [SPARFLOXACIN] registered a solubility (water) of 167 µg/mL (≈ 426 µM). The same measure, in the same setting: the value for `CCN(CC)CCOC(=O)c1ccc(N)cc1` [PROCAINE] was 4500 µg/mL (≈ 19000 µM).

For the setting “buffer”, `O=C(O)c1ccccc1C(=O)O` [PHTHALIC ACID] showed a solubility of 4130 µg/mL (≈ 24900 µM). Still for that read-out and setting: for `Cn1cnc([N+](=O)[O-])c1Sc1ncnc2nc[nH]c12` [AZATHIOPRINE] the value was 172 µg/mL (≈ 620 µM). In turn, `CCCC(=O)Nc1ccc(OCC(O)CNC(C)C)c(C(C)=O)c1` (centres undefined) [ACEBUTOLOL] came in with a solubility (water) of 711 µg/mL (≈ 2110 µM).

Take `CCc1nc(N)nc(N)c1-c1ccc(Cl)cc1` [PYRIMETHAMINE]: the solubility (water) stood at 19.4 µg/mL (≈ 78 µM). `CNCCCC12CCC(c3ccccc31)c1ccccc12` [MAPROTILINE] registered a solubility (buffer) of 5.6 µg/mL (≈ 20.2 µM). On the same count and under the same terms, for `COc1ccccc1OCCNCC(O)COc1cccc2[nH]c3ccccc3c12` (centres undefined) [CARVEDILOL] the value was 22.6 µg/mL (≈ 55.6 µM); for `CN(C)CCCN1c2ccccc2Sc2ccc(Cl)cc21` [CHLORPROMAZINE], 2.7 µg/mL (≈ 8.47 µM).

`CCN1CCN(c2cc3c(cc2F)c(=O)c(C(=O)O)cn3C2CC2)CC1` [ENROFLOXACIN] gave a solubility (water) of 237 µg/mL (≈ 659 µM). On the same count and under the same terms, the value for `Cc1ccc(C(=O)c2ccc(CC(=O)O)n2C)cc1` [TOLMETIN] was 21 µg/mL (≈ 81.6 µM); that for `NS(=O)(=O)c1cc2c(cc1C(F)(F)F)NCNS2(=O)=O` [HYDROFLUMETHIAZIDE] was 360 µg/mL (≈ 1090 µM).

Compound `Cc1cccc(CN2CCN(C(c3ccccc3)c3ccc(Cl)cc3)CC2)c1` (centres undefined) [MECLIZINE] displayed a solubility (buffer) of 0.13 µg/mL (≈ 0.333 µM). As to `NC(N)=Nc1nc(CSCCC(N)=NS(N)(=O)=O)cs1` [FAMOTIDINE], for the setting “buffer”, the solubility is 760 µg/mL (≈ 2250 µM). With `O=C(O)C(O)c1ccccc1Cl` (centres undefined), the solubility result (buffer) is listed as “Soluble”. Consider `CCn1cc(C(=O)O)c(=O)c2ccc(C)nc21` [NALIDIXIC ACID], for which the concentration in solution (water) (solubility) came to 57 µg/mL (≈ 245 µM). On the same count and under the same terms, for `CCCCNc1ccc(C(=O)OCCN(C)C)cc1` [TETRACAINE] the value was 258 µg/mL (≈ 976 µM). For `O=C(O)c1ccccc1O` [SALICYLIC ACID], the concentration in solution (buffer) (solubility) was 1620 µg/mL (≈ 11700 µM). In turn, `O=C(O)c1ccc(O)cc1` [PARABEN] displayed a solubility (water) of 4740 µg/mL (≈ 34300 µM).

Compound `CN(C)CCC=C1c2ccccc2CCc2ccccc21` [AMITRIPTYLINE] showed a solubility (water) of 7.8 µg/mL (≈ 28.1 µM). Same read-out and setting: the value for `CC(C)NCC(O)COc1cccc2[nH]ccc12` (centres undefined) [PINDOLOL] was 40 µg/mL (≈ 161 µM).

On to `O=C(O)c1cc(Br)c(O)cc1O`, for which, for the setting “water”, the solubility came to 559 µg/mL (≈ 2400 µM). The same measure, in the same setting: the value for `CC(C(=O)O)c1ccc2c(c1)[nH]c1ccc(Cl)cc12` (centres undefined) [CARPROFEN] was 5.5 µg/mL (≈ 20.1 µM); that for `CCn1cc(C(=O)O)c(=O)c2cc(F)c(N3CCNCC3)cc21` [NORFLOXACIN] was 559 µg/mL (≈ 1750 µM). `CNCCC=C1c2ccccc2CCc2ccccc21` [NORTRIPTYLINE]: the concentration in solution (buffer) (solubility) was 25 µg/mL (≈ 94.9 µM). Under “water”, `OCCN(CCO)c1nc(N2CCCCC2)c2nc(N(CCO)CCO)nc(N3CCCCC3)c2n1` [DIPYRIDAMOLE] showed a solubility of 3.46 µg/mL (≈ 6.86 µM). On the same count and under the same terms, the value for `CCCCOc1cc(C(=O)NCCN(CC)CC)c2ccccc2n1` [DIBUCAINE] was 14 µg/mL (≈ 40.8 µM). Same read-out and setting: for `CC(=O)OCC1=C(C(=O)O)N2C(=O)[C@@H](NC(=O)Cc3cccs3)[C@H]2SC1` [CEPHALOTHIN] the value was 457 µg/mL (≈ 1150 µM). The compound `CC(C(=O)O)c1cccc(Oc2ccccc2)c1` (centres undefined) [FENOPROFEN] gave a solubility (buffer) of 48 µg/mL (≈ 198 µM). The compound `O=C1NC(=O)C(c2ccccc2)(c2ccccc2)N1` [PHENYTOIN] came in with a solubility (water) of 35 µg/mL (≈ 139 µM). On the same count and under the same terms, the value for `NC12CC3CC(CC(C3)C1)C2` [AMANTADINE] was 2120 µg/mL (≈ 14000 µM). The same measure, in the same setting: the value for `CN(C)CCCN1c2ccccc2CCc2ccccc21` [IMIPRAMINE] was 22 µg/mL (≈ 78.5 µM); that for `NCCc1c[nH]c2ccccc12` [TRYPTAMINE] was 80 µg/mL (≈ 499 µM). With `CNC(=C[N+](=O)[O-])NCCSCc1ccc(CN(C)C)o1` [RANITIDINE], the solubility (buffer) was found to be 990 µg/mL (≈ 3150 µM).

Turning to `CN(C)C(=O)C(CCN1CCC(O)(c2ccc(Cl)cc2)CC1)(c1ccccc1)c1ccccc1` [LOPERAMIDE], the solubility (buffer) was determined as 0.04 µg/mL (≈ 0.0838 µM). Still for that read-out and setting: for `CN1CCN(c2c(F)cc3c(=O)c(C(=O)O)cn4c3c2OCN4C)CC1` [MARBOFLOXACIN] the value was “Soluble”; for `O=C1CN(/N=C/c2ccc([N+](=O)[O-])o2)C(=O)N1` [NITROFURANTOIN], 137 µg/mL (≈ 575 µM). Compound `Cc1nnc(NS(=O)(=O)c2ccc(N)cc2)s1` [SULFAMETHIZOLE] came in with a solubility (water) of 450 µg/mL (≈ 1660 µM). `CCCN(CCC)S(=O)(=O)c1ccc(C(=O)O)cc1` [PROBENECID] returned a solubility (water) of 3.9 µg/mL (≈ 13.7 µM). For the compound `CCn1cc(C(=O)O)c(=O)c2cc(F)c(N3CCNC(C)C3)c(F)c21` (centres undefined) [LOMEFLOXACIN], the solubility (water) was 1630 µg/mL (≈ 4640 µM). Regarding `CC1CCc2cc(F)cc3c(=O)c(C(=O)O)cn1c23` (centres undefined) [FLUMEQUINE], for the setting “buffer”, the solubility worked out at 48 µg/mL (≈ 184 µM). In the case of `CCCCNC(=O)NS(=O)(=O)c1ccc(C)cc1` [TOLBUTAMIDE], the solubility (water) amounted to 93 µg/mL (≈ 344 µM). Still for that read-out and setting: the value for `Nc1nc2nc[nH]c2c(=O)[nH]1` [GUANINE] was 5.6 µg/mL (≈ 37.1 µM). Same read-out and setting: for `CN1C(C(=O)Nc2ccccn2)=C(O)c2ccccc2S1(=O)=O` [PIROXICAM] the value was 5.2 µg/mL (≈ 15.7 µM); for `C=CCc1ccccc1OCC(O)CNC(C)C` (centres undefined) [ALPRENOLOL], 580 µg/mL (≈ 2330 µM); for `C#CCN(C)[C@H](C)Cc1ccccc1` [SELEGILINE], 575 µg/mL (≈ 3070 µM). The same measure, in the same setting: for `Cc1cccc(Nc2ccccc2C(=O)O)c1C` [MEFENAMIC ACID] the value was 0.04 µg/mL (≈ 0.166 µM). For `CCN(CC)CCNC(=O)c1ccc(N)cc1` [PROCAINAMIDE], the solubility result (buffer) was “Soluble”. As to `CC1=NS(=O)(=O)c2cc(Cl)ccc2N1` [DIAZOXIDE], for the setting “water”, the solubility worked out at 100 µg/mL (≈ 434 µM). The same measure, in the same setting: the value for `c1ccc2[nH]c(-c3cscn3)nc2c1` [THIABENDAZOLE] was 66 µg/mL (≈ 328 µM). `CN[C@H]1CC[C@@H](c2ccc(Cl)c(Cl)c2)c2ccccc21` [SERTRALINE] showed a solubility (buffer) of 4.5 µg/mL (≈ 14.7 µM). As for `CCCNC(=O)NS(=O)(=O)c1ccc(Cl)cc1` [CHLORPROPAMIDE], the concentration in solution (water) (solubility) came to 156 µg/mL (≈ 564 µM).

As for `CC(CN(C)C)CN1c2ccccc2CCc2ccccc21` (centres undefined) [TRIMIPRAMINE], for the setting “water”, the concentration in solution (solubility) was 4.8 µg/mL (≈ 16.3 µM). As for `O=C(O)c1cc(/N=N/c2ccc(S(=O)(=O)Nc3ccccn3)cc2)ccc1O` [SULFASALAZINE], the solubility (buffer) amounted to 0.29 µg/mL (≈ 0.728 µM). In turn, `NS(=O)(=O)c1cc2c(cc1Cl)N=C(CSCc1ccccc1)NS2(=O)=O` [BENZTHIAZIDE] came in with a solubility (water) of 6.4 µg/mL (≈ 14.8 µM). On the same count and under the same terms, the value for `CNCCCN1c2ccccc2CCc2ccccc21` [DESIPRAMINE] was 63 µg/mL (≈ 236 µM). Regarding `C[C@@H]1CN(c2c(F)c(F)c3c(=O)c(C(=O)O)cn(C4CC4)c3c2F)C[C@H](C)N1` [ORBIFLOXACIN], the solubility entry (buffer) is reported as “Soluble”. As to `O=C(O)c1cc(-c2ccc(F)cc2F)ccc1O` [DIFLUNISAL], the concentration in solution (water) (solubility) was 0.29 µg/mL (≈ 1.16 µM).

The compound `O=c1n(CCCN2CCN(c3cccc(Cl)c3)CC2)nc2ccccn12` [TRAZODONE] gave a solubility (water) of 127 µg/mL (≈ 342 µM). On the same count and under the same terms, for `c1ccc(Cn2ccnc2)cc1` [BENZYLIMIDAZOLE] the value was 874 µg/mL (≈ 5520 µM). The compound `Cc1ccc(Cl)c(Nc2ccccc2C(=O)O)c1Cl` [MECLOFENAMIC ACID] showed a solubility (buffer) of 0.16 µg/mL (≈ 0.54 µM). Regarding `CCOC(=O)c1ccc(N)cc1` [BENZOCAINE], the concentration in solution (water) (solubility) came to 780 µg/mL (≈ 4720 µM). The same measure, in the same setting: for `CN1CCN(C2=Nc3cc(Cl)ccc3Nc3ccccc32)CC1` [CLOZAPINE] the value was 189 µg/mL (≈ 578 µM). `CC(=O)CC(c1ccccc1)c1c(O)c2ccccc2oc1=O` (centres undefined) [WARFARIN] came in with a solubility (buffer) of 5.1 µg/mL (≈ 16.5 µM). For the compound `Nc1ccc(Br)cc1C(=O)O`, the concentration in solution (water) (solubility) was 182 µg/mL (≈ 842 µM). On the same count and under the same terms, for `CN1CCN(c2cc3c(cc2F)c(=O)c(C(=O)O)cn3-c2ccc(F)cc2)CC1` [DIFLOXACIN] the value was 100 µg/mL (≈ 250 µM); for `COc1ccc(Cc2nccc3cc(OC)c(OC)cc23)cc1OC` [PAPAVERINE], 46 µg/mL (≈ 136 µM).
